From patent US20050004007A1, “Promotion of adoptosis in cancer cells by co-administration of cyclin dependent kinase inhibitiors and cellular differentiation agents” (priority 2000, published 2005)

Key:
Type in all cases: cell-based, human
[1] = tested on: Mcl-1; experiment: Western analysis of Mcl-1 in U937 cells; details: 100 nM FP, 1 mM SB, 12 and 24 hours
Experimental: (§1) Alternatively, whole cell-pellets were washed twice in PBS, resuspended in PBS, and lysed by the addition of I volume of loading buffer. Lysates were boiled for 10 min, centrifuged at 12,800 g for 5 min and quantified using Coomassie protein assay reagent (Pierce, Rockfold, Ill.). 25 μg of total proteins per point were separated by SDS-PAGE and electro-blotted to nitrocellulose. The blots were blocked in 5% non-fat milk in PBS-T and probed for 1 h with the appropriate dilution of primary antibody. Blots were washed 3×10 min in PBS-T and then incubated with a 1:2000 dilution of peroxidase-conjugated secondary antibody for 1 h at room temperature. Blots were again washed 3×10 min in PBS-T and then developed by enhanced chemiluminesence. Where indicated, blots were stripped and re-probed with antibodies directed against actin. […]

[2] = tested on: U937 cells; experiment: cell cycle analysis (propidium iodide, flow cytometry)
Experimental: Cell Cycle Analysis. Following drug treatment, cells were pelleted by centrifugation at 500 g×6 min, and resuspended in 70% ethanol. The cells were incubated on ice for at least 1 h and resuspended in 1 ml cell cycle buffer (0.38 mM Na-Citrate, 0.5 mg/ml RNase A, and 0.01 mg/ml propidium iodide) at a concentration of 10×10^5 cells/ml, stored in the dark at 4 C until analysis (24 h), using a Becton-Dickinson FACScan flow cytometer and Verity Winlist software (Verity Software, Topsham, Me.).

[3] = tested on: U937 cells; experiment: loss of mitochondrial membrane potential (DiOC6 uptake, flow cytometry); details: for percentage of cells displaying a loss of Δψm: 100 nM FP, 1 mM SB, 12 or 24 hr
Experimental: Assessment of mitochondrial membrane potential. At designated times, 1 ml aliquots of cells (2×10^5) were harvested and incubated with 40 nM DiOC6 for 15 minutes at 25° C. as previously described [Zamzami et al 1995]or at 37° C. Samples were analyzed using a Becton Dickinson FACScan flow cytometer (excitation λ=488 nm; emission λ=525 nm). […] Data acquisition and analysis was performed using […] Software (Becton Dickinson, Mansfield, Mass.).

[4] = tested on: Bcl-2; experiment: Western analysis of Bcl-2 cleavage in U937 cells; details: SB 1 mM, FP 100 nM, 12 and 24 hr
Experimental: as §1

[5] = tested on: p21WAF1/CIP1; experiment: Western analysis of p21WAF1/CIP1 expression in U937 cells; details: for p21WAF1/CIP1 levels: 1 mM SB, 100 nM FP, 1-24 hr
Experimental: (§2) Western analysis. Equal quantities of protein (15 μg/condition for MAPK, 40 μg/condition for cytochrome c, or 25 μg/condition) were separated by SDS-PAGE [underphosporylated pRB (7.5%), poly(ADP-ribose)polymerase or PARP (8.0%), p44/p42 MAPK (10%), p21, p27, procaspase 3 (12%), and cytochrome c (15%)] and electroblotted onto nitrocellulose. Western analysis of p44/p42 MAPK protein was performed according to the manufacturer's instructions (New England Biolabs); otherwise, studies were performed as previously described [Wang et al, 1998]. Briefly, U937 cells (5×10^6) were pelleted by centrifugation, resuspended in 50 μl PBS, lysed by the addition of 2× Laemmli buffer and boiled for 5 min. Proteins were quantified with Coomassie protein assay reagent. Blots were blocked in PBS-T/5% milk, washed twice with PBS-T, and incubated overnight at 4° C. with the appropriate primary antibody. The blots were washed with PBS-T and incubated with a horseradish-peroxidase conjugated secondary antibody diluted appropriately in PBS-T/5% mill. Following incubation, blots were developed by enhanced chemiluminescence exposure to Kodak X-OMAT film (Eastman Kodak Co., Rochester, N.Y.) and reprobed with antibodies directed against actin to control for equal loading of protein.
(§3) Alternatively, whole cell-pellets were washed twice in PBS, resuspended in PBS, and lysed by the addition of I volume of loading buffer. Lysates were boiled for 10 min, centrifuged at 12,800 g for 5 min and quantified using Coomassie protein assay reagent (Pierce, Rockfold, Ill.). 25 μg of total proteins per point were separated by SDS-PAGE and electro-blotted to nitrocellulose. The blots were blocked in 5% non-fat milk in PBS-T and probed for 1 h with the appropriate dilution of primary antibody. Blots were washed 3×10 min in PBS-T and then incubated with a 1:2000 dilution of peroxidase-conjugated secondary antibody for 1 h at room temperature. Blots were again washed 3×10 min in PBS-T and then developed by enhanced chemiluminesence. Where indicated, blots were stripped and re-probed with antibodies directed against actin.
(§4) Primary antibodies for both p21^WAF1/CIP1 and p27^KIP1 (Transduction Laboratories, Lexington, Ky.) were used in a 1:1000 dilution; PARP (1:1000; Oncogene Research Products, Cambridge, Mass.); pro-caspase 3 (1:1000; Transduction Laboratories); cytochrome c (1:2000; Pharmingen); bcl-2 (1:2000; DAKO, Denmark); bax (1:1000; Santa Cruz Biotechnology, Inc., Santa Cruz, Calif.); bid (1:1000; Cell Signaling, Beverly, Mass.); XIAP (1:1000; Cell Signaling); Mcl-1 (1:1000; Pharmingen); bak (1:1000; Calbiochem); c-Myc (1:1000; Pharmingen, San Diego, Calif.); actin (1:2000; Sigma Chemicals, St. Louis, Mo.); cyclins-D1, -A and -E (1:1000; Pharmingen); pRb, underP-pRb, pRb-CDK2 and pRb-CDK4 (all 1:1000; Pharmingen); Ac-H3 and Ac-H4 (both 1:1000; Upstate Biotechnology, Lake Placid, N.Y.); E2F-1 (Upstate Biotechnology). Secondary antibodies conjugated to horseradish peroxidase were obtained from Kirkegaard and Perry Laboratories, Inc. (Gaithersburg, Md.). Coomassie protein assay reagent was purchased from Pierce (Rockford, Ill.), and an enhanced chemiluminescence kit was obtained from New England Nuclear (Boston, Mass.). The pan-caspase inhibitor BOC-D-fmk and the caspase 8 inhibitor Z-IETD-fmk were purchased from Enzyme System Products (Livermore, Calif.) All other chemicals or reagents were purchased from Sigma.

[6] = tested on: cyclin D1; experiment: Western analysis of cyclin D1 in U937 cells
Experimental: as §3
as §4, with “The pan-caspase inhibitor BOC-D-fmk and the caspase 8 inhibitor Z-IETD-fmk were purchased from Enzyme System Products (Livermore, Calif.) All other chemicals or reagents were purchased from Sigma.” left out

[7] = tested on: pRb; experiment: Western analysis of underphosphorylated pRb in U937 cells; details: for levels of underphosphorylated pRb: FP 100 nM, SB 1 mM, 12 or 24 hr
Experimental: as §2, §3, §4

SMILES | levels of Mcl-1 [1] | cell cycle distribution ([2]; 24 h after administration of SAHA, FP or both) | percentage of cells arresting in G0/G1 ([2]; 48 h, 1 mM SB or 100 nM FP) [%] | percentage of cells displaying a loss of Δψm [3] | loss of mitochondrial membrane potential (Δψm) ([3]; 1 and 1.5 μM SAHA and FP (100 nM)) | loss of mitochondrial membrane potential (Δψm) ([3]; FP 100 nM, PMA 10 nM, 4-8 h exposure) | cleavage of Bcl-2 (rapidly migrating species) [4] | p21WAF1/CIP1 expression ([5]; 10 nM PMA, FP 50-100 nM, 24 h) | p21WAF1/CIP1 levels [5] | FP concentration at which reduction in cyclin D1 levels was first observed ([6]; 12 and 24 hours treatment) [nM] | FP concentration at which reduction in cyclin D1 levels was virtually complete ([6]; 12 and 24 hours treatment) [nM] | full-length underphosphorylated pRb ([7]; 10 nM PMA, FP 50, 80 or 100 nM, 24 h) | levels of underphosphorylated pRb [7] | percentage of cells arresting in G0/G1 ([2]; 24 h, 1 mM SB) [%] | cyclin D1 protein ([6]; SB 1 mM 24 hours, FP and SB 12 hours)
CN1CC[C@H](c2c(O)cc(O)c3c(=O)cc(-c4ccccc4Cl)oc23)[C@H](O)C1 [FP, Flavopiridol] | reductions in levels of Mcl-1 | increase in the G0/G1 population | ~53 | modest increase | no effect | reductions were noted | faintly discerned | no effect | did not modify | 100 | 300 | minimal effect | did not affect |  | 
CCCC(=O)[O-].[Na+] [SB, sodium butyrate] | minimal effects |  | 81.6 | no effect |  |  | faintly discerned |  | time-dependent increase |  |  |  | substantial increase | 48.1 | moderate decrease
